“Also recorded” adds a separate entry of the source.
Assays:
CD4+CD25− T cells = assay: [3H]thymidine proliferation assay of CD4+CD25− T cells; type: cell-based, mouse
Experimental: Proliferation assays. T cell-depleted splenocytes (Tds) were obtained by negative selection with murine anti-CD4 and anti-CD8 microbeads (Miltenyi Biotec). Isolated CD4^+CD25^− T cells (5×10^4/well) were cultured in 96-well plates (Costar) with irradiated Tds (5×10^4/well) (2600 rad) in the presence or absence of soluble anti-CD3 mAb (0.7 μg/ml) (R&D Systems, Minneapolis, Minn.). DP (100 μM), IBMX (300 μM) or vehicle control (0.1% DMSO in media) were added at 0 hours. After 48 hours, 2 μCi per well of [^3H]thymidine (NEN, Waltham, Mass.) was added and cells were harvested 16 hours later using a semiautomated cell harvester and [^3H]thymidine incorporation determined by scintillation counting. Cell viability in suppression assays was determined using trypan blue (2.5%) at 64 hours of incubation.
In FIG. 22, purified CREM/ICER^+/+ or CREM/ICER^−/− derived CD4^+CD25^−T cells (5×10^4/well) were cocultured with irradiated T cell depleted splenocytes (5×10^4 well) presenting soluble anti-CD3 mAb (0.75 μg/ml) and the cultures were incubated with IBMX (300 μM), DP (100 μM), or vehicle (media) for 64 hours with [3H]thymidine added for the final 16 hours. The extent of proliferation was determined by [3H]thymidine incorporation at 64 hours and the data are presented as the mean cpm+SEM of an experiment run in triplicate. The results are representative of 2 independent experiments. […] (*p<0.05, **p<0.001; comparisons to vehicle were analyzed using a one way ANOVA followed by Bonferroni t-test and using an unpaired t-test for comparisons between DP and IBMX).

PDE8A [1] = test system: T1, PDE8A; settings: expressed forms of full length cDNAs for PDE8; cited from earlier work
T1 construct: other: expressed forms of full length cDNAs for PDE8

EAE in C57BL/6 mice = assay: experimental autoimmune encephalomyelitis (EAE), clinical score; type: in vivo, mouse
Experimental: Induction of active EAE and clinical evaluation. Active EAE is induced in 8-12 weeks old mice by immunization with MOG p35-55 in complete Freund's adjuvant. 200 μg of MOG p35-55 peptide and 800 μg of killed mycobacterium tuberculosis are emulsified in CFA and injected subcutaneously by means of four injections over the flanks. In addition, 200 ng of pertussis toxin dissolved in 200 μl PBS is injected i.p. at the day of immunization and again the day after. Mice are monitored daily for clinical signs of EAE, and scored according to the following criteria: 0, no signs of disease; 0.5, partial tail weakness; 1, limp tail; 1.5, limp tail and slight slowing of righting; 2, partial hind limb weakness and/or marked slowing of righting; 2.5, dragging of hind limb(s) without complete paralysis; 3, complete paralysis of at least one hind limb; 4, severe forelimb weakness; 5, moribund or dead. Daily clinical scores are calculated and presented as the average (mean) and standard error of the mean (SEM) of all individual disease scores in each group. Statistical comparison of disease severity by clinical score is accomplished by calculating the mean clinical score for each mouse from day of disease onset to day 60 and performing a non-parametric Wilcoxon analysis.
[…] 8. DP is the only inhibitor known to block PDE 8 in addition to other PDEs. […]

[2] = test system: peripheral blood mononuclear cells; settings: cited from earlier work
bEnd.3 endothelial cells = assay: qRT-PCR gene expression in TNF-α activated bEnd.3 endothelial cells; type: cell-based, mouse; settings: DP 100 μM
Experimental: Quantitative real-time RT-PCR analysis. 10 ng cDNA, or 2 μl cDNA for LCM studies, was amplified by qRT-PCR in a 25 μl reaction using SYBR Green PCR Master Mix (Applied Biosystems, Foster City, Calif.). Primers were designed using Primer Express software v3.0 and primer efficiency verified by slope analysis to be 100%±2.5%. qRT-PCR was performed using an ABI 7500 fast system and data analyzed using the Δ^ct method (SDS software v3.0). Amplicon sizes were approximately 100 bp.
Cell treatment. Confluent bEnd.3 monolayers were incubated with 200 ng/ml TNF-α (Peprotech, Rocky Hill, N.J.) at 37° c. for 2 hours. […] Christoff Zitt and Armin Hatzelmann (Altana Pharma, Konstanz, Germany). Con A-activated splenocytes or CD4^+CD25^− T cells activated with plate-bound anti-CD3 mAb were treated with the same reagents for 20, 45, or 90 minutes.
In FIG. 23A, bEnd.3 endothelial cells were activated for 2 hours with TNF-α (200 ng/ml) and (A) DP (100 μM) or vehicle (0.1% DMSO) for the final 45 minutes. PDE gene expression was then analyzed by qRT-PCR and the data presented as the mean+SEM of 3 independent experiments assayed in triplicate (*p<0.05, **p<0.001; unpaired t-test).
The data are shown as a mean±SEM percentage of vehicle control and represent 3 independent experiments assayed in triplicate (*p<0.05, * *p<0.001; unpaired t-test).

PDE8 = settings: read-out: Potency (IC50) PDE8; cited from earlier work
PDE8A [3] = settings: expressed forms of PDE8A; read-out: reported IC50s, PDE8A; cited from earlier work
[4] = 64 hours, DP 100 μM, IBMX 300 μM
[5] = 45 minutes, dibutryl cAMP 500 μM, 8-bromo-cAMP 500 μM

Row | Compound | T cell proliferation ([3H]thymidine incorporation) (CD4+CD25− T cells; [4]) | inhibition of expressed forms of PDE8 (PDE8A [1]) | development of clinical signs of EAE (EAE in C57BL/6 mice; 2 mg DP per mouse per day, day 0 until day 23) | clinical severity of EAE compared with vehicle (EAE in C57BL/6 mice; treatment after onset (mean score grade 1), 2×1 mg/mouse/day i.p.) | lipopolysaccharide-stimulated release of TNF-α [2] | inhibition of proliferation, DP compared with IBMX (CD4+CD25− T cells; 64 hours, DP 100 μM, IBMX 300 μM, listed as DP) | effect of Crem gene deletion (CREM/ICER−/− T cells) on DP mediated suppression of proliferation (CD4+CD25− T cells; DP 100 μM) | viability of T cells (CD4+CD25− T cells; trypan blue at 64 hours, DP treatment) | reduction of ICAM-1 mRNA expression (bEnd.3 endothelial cells; 45 minutes, dibutryl cAMP 500 μM) [%] | increase of claudin-5 gene expression (bEnd.3 endothelial cells; [5]) [%] | reduction of CXCL12 gene expression (bEnd.3 endothelial cells; [5]) [%] | reduction of VCAM-1 gene expression (bEnd.3 endothelial cells; [5]) [%] | PDE4B expression in bEnd.3 cells (bEnd.3 endothelial cells; final 45 minutes of TNF-α) | expression of other PDE genes, including PDE8A, in bEnd.3 cells (bEnd.3 endothelial cells; final 45 minutes of TNF-α) | IC50 (PDE8) [µM] | IC50 (PDE8A [3]) [µM]
1 | CC(C)Cn1c(=O)n(C)c(=O)c2[nH]cnc21 [IBMX, 3-isobutyl-1-methylxanthine] | potently suppressed | resistant | – | – | – | – | – | – | – | – | – | – | – | – | – | –
2 | OCCN(CCO)c1nc(N2CCCCC2)c2nc(N(CCO)CCO)nc(N3CCCCC3)c2n1 [Dipyridamole, 2,2′,2″,2′″-(4,8-di(piperidin-1-yl)pyrimido[5,4-d]pyrimidine-2,6-diyl)bis(azanetriyl)tetraethanol] | potently suppressed | – | profoundly suppressed | significantly decreased | inhibit | more potently than IBMX; also recorded: greater | did not affect | not affected | 65 | 111 | 69 | 60 | compensatory increase | not significantly altered | 4 to 9 | 4 to 9
